Results from ChEMBL document CHEMBL1201862, “PubChem BioAssay data set” (2004).
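Where inhibition never reached the appropriate level, the endpoint shown equals the highest concentration tested. Otherwise, values were interpolated linearly from a five-concentration, 48-hour dose response in 96-well plates. The concentration for 50% growth inhibition is given as GI50.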 Active and inactive are the calls of the source. Rule as the data show it: active = GI50 up to about 1.1 µM and inactive = higher. Where a SMILES comes first, the peptide text is derived from it. Square brackets hold non-standard residues; d marks the D form. Peptide text beside a SMILES is read from it.

Assays:
Assay in all cases: NCI tumour cell line growth inhibition, 48 h
[1] = system: A549
[2] = system: UACC-62
[3] = system: MDA-MB-231
[4] = system: NCI-H23
[5] = system: HT-29
[6] = system: 786-0
[7] = system: HCT-15
[8] = system: HOP-92
[9] = system: RPMI-8226
[10] = system: OVCAR-4
[11] = system: U-251
[12] = system: SK-MEL-5
[13] = system: COLO 205
[14] = system: NCI/ADR-RES
[15] = system: SN12C
[16] = system: CCRF-CEM
[17] = system: SF-268
[18] = system: SK-OV-3
[19] = system: SNB-19

Measured: GI50

FC(F)(Sc1ncccn1)c1nc2ccccc2o1
inactive: [1] > 100 µM | [2] > 100 µM | [3] > 100 µM | [4] > 100 µM | [5] > 100 µM | [6] > 100 µM | [8] 56.8 µM | [9] > 100 µM | [10] > 100 µM | [11] 55.5 µM | [12] > 100 µM | [13] > 100 µM | [14] > 100 µM | [15] > 100 µM | [16] 33.5 µM | [17] > 100 µM | [18] > 100 µM
> 100 µM: [7]

CCS(=O)(=O)Nc1ccc(Nc2c3ccccc3nc3ccccc23)c(OC)c1
inactive: [10] 4.19 µM | [13] 2.22 µM | [14] 5 µM
0.682 µM: [7]
active: [1] 0.0205 µM | [2] 0.416 µM | [4] 0.203 µM | [5] 1.07 µM | [8] 0.697 µM | [9] 0.28 µM | [11] 0.158 µM | [19] 0.273 µM | [12] 0.796 µM | [15] 0.166 µM | [16] 0.0485 µM | [17] 0.421 µM | [18] 0.203 µM

C[n+]1ccc2[nH]c3ccccc3c2c1
> 100 µM: [7]
inactive: [1] > 100 µM | [2] > 100 µM | [4] > 100 µM | [5] > 100 µM | [6] > 100 µM | [8] > 100 µM | [9] > 100 µM | [10] > 100 µM | [11] > 100 µM | [19] > 100 µM | [12] > 78.3 µM | [13] > 100 µM | [15] > 100 µM | [16] > 100 µM | [17] > 100 µM | [18] > 100 µM

Cc1cc(Cl)ccc1NC(=O)CC1SC(Nc2ccccc2Cl)=NC1=O (stereo not given)
inactive: [1] 36.3 µM | [2] 30.3 µM | [4] 38.6 µM | [5] 37.1 µM | [6] 53.8 µM | [8] 48.9 µM | [9] 23.2 µM | [10] 41.3 µM | [11] 26.4 µM | [19] 32.4 µM | [12] 36.6 µM | [13] 19.2 µM | [15] 33.8 µM | [16] 29.6 µM | [17] 39 µM | [18] 49.3 µM
39.9 µM: [7]

CN(C)c1cccc(OC(=O)NCCCl)c1
> 100 µM: [7]
inactive: [1] > 100 µM | [2] > 100 µM | [4] > 100 µM | [5] > 100 µM | [8] 65.3 µM | [10] > 100 µM | [11] > 100 µM | [19] > 100 µM | [12] > 100 µM | [13] > 100 µM | [14] > 100 µM | [15] > 100 µM | [16] 68.2 µM | [17] > 100 µM | [18] > 100 µM

Cc1cc(/N=N/c2ccc(/N=N/c3c(O)c(S(=O)(=O)O)cc4cc(S(=O)(=O)O)ccc34)cc2C)ccc1/N=N/c1ccc2cc(S(=O)(=O)O)cc(S(=O)(=O)O)c2c1
> 100 µM: [7]
inactive: [1] > 100 µM | [2] > 100 µM | [4] > 100 µM | [5] > 31.6 µM | [8] > 68.5 µM | [9] > 100 µM | [10] > 100 µM | [11] > 100 µM | [19] > 100 µM | [12] > 100 µM | [13] > 100 µM | [14] > 100 µM | [15] > 100 µM | [16] > 100 µM | [17] > 100 µM | [18] > 47 µM

O=C(CCN(C(=O)O)S(=O)(=O)c1ccc(NC(=O)c2ccccc2)cc1)Nc1ccccc1
inactive: [1] > 46.5 µM | [2] > 61.9 µM | [4] > 100 µM | [5] > 94.2 µM | [6] > 100 µM | [8] > 100 µM | [9] > 64.1 µM | [10] > 100 µM | [11] > 75.7 µM | [19] > 100 µM | [12] > 100 µM | [13] > 61.4 µM | [15] > 100 µM | [16] > 61.7 µM | [17] > 100 µM | [18] > 100 µM
> 58.6 µM: [7]

CC1=NN2C(c3ccc([N+](=O)[O-])cc3)=CSC2=NC(C)(C)C1
inactive: [1] > 100 µM | [2] > 100 µM | [4] > 100 µM | [5] > 100 µM | [6] > 100 µM | [8] 79.6 µM | [9] > 100 µM | [10] > 100 µM | [11] > 100 µM | [19] > 100 µM | [12] > 100 µM | [13] > 100 µM | [15] > 100 µM | [16] > 100 µM | [17] > 100 µM | [18] > 100 µM
> 100 µM: [7]

O=C(CCN1CCOCC1)C(=Cc1ccccc1)C(=O)CCN1CCOCC1
2.1 µM: [7]
active: [9] 1.04 µM | [16] 0.796 µM
inactive: [1] 18.1 µM | [2] 2.31 µM | [4] 2.3 µM | [5] 2.98 µM | [8] 2.11 µM | [10] 5.28 µM | [11] 14.1 µM | [19] 14.9 µM | [12] 7.08 µM | [13] 2.51 µM | [14] 2.46 µM | [15] 2.96 µM | [17] 6.85 µM | [18] 16.6 µM

COC(=O)Cc1c(C2C(CC(=O)OC)c3ccccc3N2C2OC(CO)C(O)C(O)C2O)[nH]c2ccccc12 (stereo not given)
inactive: [1] > 100 µM | [2] > 100 µM | [3] > 100 µM | [4] > 100 µM | [5] > 100 µM | [8] > 100 µM | [9] > 100 µM | [10] > 100 µM | [11] > 100 µM | [19] > 100 µM | [12] > 100 µM | [13] > 100 µM | [15] > 100 µM | [16] > 100 µM | [17] > 100 µM | [18] > 100 µM
> 100 µM: [7]

CC1=C(C(=O)Nc2ccccc2)C(c2ccccc2Cl)C(C(=O)Nc2ccccc2)=C(C)N1
inactive: [1] 41.6 µM | [2] 13.6 µM | [4] 26.4 µM | [5] 21 µM | [6] 19.6 µM | [8] 21.6 µM | [9] 19.4 µM | [10] 36.4 µM | [11] 19.4 µM | [19] 24.8 µM | [12] 15.2 µM | [13] 19.4 µM | [15] 18.9 µM | [16] 32 µM | [17] 24.4 µM | [18] 37.1 µM
20 µM: [7]

COC(=O)N/N=C(\C)c1sc(-c2nc(C)c(/C(C)=N/NC(=O)OC)s2)nc1C
inactive: [1] > 100 µM | [2] > 100 µM | [4] > 100 µM | [5] > 100 µM | [6] > 100 µM | [8] > 100 µM | [9] > 100 µM | [10] > 100 µM | [11] > 100 µM | [19] > 100 µM | [12] > 100 µM | [13] > 100 µM | [15] > 100 µM | [16] 79.6 µM | [17] > 100 µM | [18] > 100 µM
> 100 µM: [7]

COc1ccc(C(N)=O)c(OC)c1OCc1ccccc1
> 100 µM: [7]
inactive: [1] > 100 µM | [2] > 100 µM | [4] 9.51 µM | [5] > 100 µM | [6] > 100 µM | [8] > 100 µM | [9] > 100 µM | [10] > 100 µM | [11] > 100 µM | [19] > 100 µM | [12] > 100 µM | [13] > 100 µM | [15] > 100 µM | [16] > 100 µM | [17] > 100 µM | [18] > 100 µM

CC(C)C[C@H](NC(=O)[C@H](CC(C)C)NC(=O)[C@@H](Cc1c[nH]c2ccccc12)NC(=O)[C@H](Cc1ccccc1)NC(=O)[C@@H](Cc1c[nH]c2ccccc12)NC(=O)[C@H](CCC(N)=O)NC(=O)[C@@H](CCC(N)=O)NC(=O)[C@@H]1CCCN1C(=O)[C@@H](CCCCN)NC(=O)[C@H]1CCCN1C(=O)[C@H](N)CCCN=C(N)N)C(N)=O (H-[dR][dP][dK]P[dQ]Q[dW]F[dW]LL-NH2)
> 100 µM: [7]
inactive: [1] > 100 µM | [2] > 100 µM | [4] > 100 µM | [5] > 100 µM | [8] > 100 µM | [9] > 100 µM | [10] > 100 µM | [11] > 55 µM | [19] 44.9 µM | [12] > 100 µM | [13] > 100 µM | [14] > 100 µM | [15] > 100 µM | [16] > 100 µM | [17] > 100 µM | [18] > 100 µM

CC1NC(=O)CNC(=O)CNC(=O)C(Cc2ccc(O)cc2)NC(=O)C(C(C)C)NC(=O)C(C)NC1=O (stereo not given) (cyclo(GGAAVY); configuration not given here)
inactive: [1] > 100 µM | [2] > 100 µM | [4] > 100 µM | [5] > 100 µM | [8] 50.8 µM | [9] > 100 µM | [10] 10.7 µM | [11] > 100 µM | [19] > 100 µM | [12] > 100 µM | [13] > 100 µM | [14] > 100 µM | [15] > 100 µM | [16] > 100 µM | [17] > 100 µM | [18] > 100 µM
> 100 µM: [7]
